Patent US20230272012A1, “PEPTIDES AND METHODS OF USE” (REALTA LIFE SCIENCES, INC., priority 2020, published 2023)
“Also recorded” adds a separate entry of the source. Bridge positions count the residues as written; N and C are the ends. Square brackets hold non-standard residues; d marks the D form. Ends that are not written are not given here. Peptide text beside a SMILES is read from it. R8 = C=CCCCCCC[C@@](C)(N)C(=O)O; S5 = C=CCCC[C@](C)(N)C(=O)O; Sar = CNCC(=O)O

How the values were obtained:
[1] = Total Antioxidant Capacity (TAC) assay; details: highest peptide concentration 1.5 mM
Experimental: As previously reported, the TAC (Total Antioxidant Capacity) Assay (Cell Biolabs, Inc, San Diego, Calif.) was used to measure the antioxidant capacity of the PIC1 variants based on the reduction of copper (II) to copper (I). The kit protocol was performed per the manufacturer's recommendations.
The antioxidant properties for the PIC1 variants were evaluated in a Total Antioxidant Capacity (TAC) assay, as previously reported. Total antioxidant activity over a range of peptide concentrations were determined for the stapled and the D-amino acid peptides based on the PA-I8Sar and PA-C9Sar backbones (FIG. 8A-8D), with the activity of the highest peptide concentration reported (1.5 mM) (FIGS. 4A and B, respectively). […] For the D-amino acid variants, there was variation in the amount of antioxidant activity with the peptides having similar, slightly lower and slightly higher levels of total antioxidant capacity. In contrast, stapled peptides (PA-0135 through -0140) as well as combination of stapled and D-amino acid peptides had reduced total antioxidant capacity (FIG. 4A).

[2] = ABO incompatibility hemolytic assay of complement activity (CH50-type); assay type: cell-based, human; details: peptide 0.8 mg/ml (~0.5 mM); read-out: decrease of ABO hemolysis compared to PA-I8Sar
Experimental: FIG. 1A-1B show PIC1 peptides' inhibition of complement activation in an ABO incompatibility assay. […] Inhibition of ABO incompatibility hemolysis in a CH50-type assay. Peptides are at a final concentration of 0.5 mM. Values are represented as a percent of the positive control, which consists of human O sera and AB red blood cells in GVBS^++ buffer. Data are the means of n=3 independent experiments±SEM.
For hemolytic complement assays, human red blood cells (RBCs) from type AB donors were purified, washed, and standardized to 1.0×10^9 cells/ml, as previously described. Human sera from type O donors at a 15% final concentration was combined with 0.5 mM of the peptides and the volume was brought up to 0.2 ml with GVBS^++ and 5.0×10^7 RBCs. The samples were incubated for 1 hour at 37° C. and then spun at 3,000 rpm for 5 minutes and the supernatant was collected and read at 412 nm. Values are represented as a percent of the positive control, which consists of human O sera and AB red blood cells in GVBS^++ buffer.
To assess the extent to which the peptide variants inhibit antibody-initiated complement activation, an ABO incompatibility ex vivo assay was utilized in which purified erythrocytes from a ‘type AB+’ donor are incubated with sera from a ‘type O’ subject containing anti-A and anti-B antibodies. Peptides were tested at a concentration of 0.8 mg/ml (˜0.5 mM). […] D-amino acid variants PA-0127 and PA-0133 decreased ABO hemolysis by 20% (P value=0.083) and 25% (P value=0.076), respectively. […]

human neutrophils = test: NETosis assay (free DNA, PicoGreen); assay type: cell-based; details: peptide 2 mM; neutrophils stimulated with PMA and H2O2
Experimental: Free DNA as a marker for NET formation was measured by PicoGreen as previously described. Briefly, 2.0×10^6 human neutrophils in 96-well plates were stimulated with 12 nM PMA and 0.05% H2O2 in RPMI with or without the indicated peptide variants (2 mM) for 2.5 hr in a 37° C. humified incubator supplemented with 5% CO2, allowing NETosis to occur. Neutrophils in RPMI alone served as a negative control. Fifty units of […] (Fisher) were added to each well to allow for digestion of released extracellular DNA for 10 min at 37° C. The preparation was then aliquoted into an adjacent well and mixed 1:1 with prepared PICO green reagent (Fisher). The fluorescence was then quantified on a BioTek microplate reader at excitation 485 nm/emission 528 nm.

complement activity = test: Hemolytic assay of plasma after IV infusion into rats; assay type: in vivo, rat; details: IV in Wistar rats; early time points at the highest dose
Experimental: Male Wistar rats with indwelling jugular catheters were administered PA-0117, -0127, -0130, and -0133 with groups of three animals receiving 20, 200 and 400 mg/kg of the compound as a single, bolus, IV infusion. A control group of rats received an infusion of saline IV. At various time points after infusion (0.5, 2, 5, 20, 60, 120, 240, 480, 1440 minute) an aliquot of blood was drawn and plasma isolated and frozen at −70° C. pending analysis. Animals were sacrificed after the terminal blood draw and a gross necropsy performed.
PA-0117 could not be analyzed as no functional complement activity was obtained from the plasma samples. […] PA-0117 was analyzed in a C1q target acquisition assay (C1q binding assay) as described in Example 1 (FIG. 9). […] PA-0127 and -0130 levels were determined by coating the plate with the plasma samples and directly detecting the peptides by rabbit antibody raised against PA-0020 (peptide sequence […]; SEQ ID NO: 57) (FIGS. 10B and 11B). […] PA-0133 could not be detected by the available antibodies.

C1q = molecular target: T1, C1q (Homo sapiens, UniProt P02745+P02746+P02747); test: C1q binding ELISA-type assay; details: half-maximal binding from binding curves
T1 construct: purchased Complement Technology (Tyler, Tex.)
T1 sequence (P02745 23-245): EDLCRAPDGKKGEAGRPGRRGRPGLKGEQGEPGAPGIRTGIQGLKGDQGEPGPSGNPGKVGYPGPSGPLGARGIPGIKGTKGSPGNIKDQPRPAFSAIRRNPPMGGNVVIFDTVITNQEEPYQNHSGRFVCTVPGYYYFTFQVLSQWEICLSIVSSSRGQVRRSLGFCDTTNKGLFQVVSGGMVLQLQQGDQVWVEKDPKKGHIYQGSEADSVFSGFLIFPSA
T1 sequence (P02746 28-253): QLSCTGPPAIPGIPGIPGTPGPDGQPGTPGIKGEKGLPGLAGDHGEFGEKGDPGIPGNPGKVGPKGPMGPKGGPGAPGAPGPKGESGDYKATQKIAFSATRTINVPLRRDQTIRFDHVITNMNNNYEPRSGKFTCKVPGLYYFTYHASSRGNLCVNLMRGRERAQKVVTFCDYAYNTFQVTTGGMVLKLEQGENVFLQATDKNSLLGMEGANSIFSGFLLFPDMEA
T1 sequence (P02747 29-245): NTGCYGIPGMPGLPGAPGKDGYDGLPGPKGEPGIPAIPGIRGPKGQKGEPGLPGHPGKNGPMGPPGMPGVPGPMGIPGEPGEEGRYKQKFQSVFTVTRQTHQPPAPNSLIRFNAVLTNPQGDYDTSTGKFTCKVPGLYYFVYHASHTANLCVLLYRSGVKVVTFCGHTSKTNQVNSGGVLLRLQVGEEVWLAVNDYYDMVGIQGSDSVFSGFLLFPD
Experimental: The C1q binding assay was performed as previously described. Briefly, an Immunlon-2 HB ELISA plate was coated with 1 μg/ml C1q in bicarbonate buffer overnight at 4° C. The plates were washed with PBS-T (phosphate buffered saline+0.1% Tween) and then blocked with 1% gelatin/PBS for 2 hours at room temperature. After washing, the plates were incubated with the peptides starting at 2.5 mg/ml and then serially diluted in 1% gelatin/PBS for 1 hour at room temperature followed by washing. Plates were then probed with rabbit antibody raised against the lead peptide […] (SEQ ID NO: 2) that lacked PEGylation at 1:1000 in 1% gelatin/PBS for 1 hour at room temperature followed by a goat anti-rabbit HRP (Sigma Aldrich, St Louis, Mo.) at 1:1,000 in 1% gelatin/PBS for 1 hour at room temperature with a washing step in between. After addition of TMB substrate solution to the wells, the reaction was stopped using 1N H2SO4, and the plate read on a BioTek Synergy HT plate reader at 450 nm.
The astrovirus capsid protein and the PIC1 molecules derived from it inhibit classical complement pathway activation by binding to the pattern recognition molecule C1q. The inventors next tested peptide variant binding to C1q in an ELISA-type assay in which C1q is used as the capture substrate and bound peptide detected with a rabbit polyclonal antibody against the peptide portion of PA-dPEG24 ([…]-d24; SEQ ID NO: 3). Binding curves were derived for the stapled and D-amino acid peptides based on the PA-I8Sar and PA-C9Sar (FIG. 6A-6D) backbone, from which half-maximal binding concentrations were calculated (FIGS. 2A and B, respectively). […] For the D-amino acid variants, all peptides in which C1q binding was detected, had variable but increased binding to C1q compared to PA-I8Sar (FIG. 2A). For the peptides based on the PA-C9Sar backbone, with the exception of PA-0148, C1q was bound to the same degree or greater than the parent peptide (FIG. 2B).
The inventors also assessed the ability of RLS-0127* and RLS-0133* to inhibit MPO activity as determined by inhibition of oxidation of TMB in a plate-based assay. […] Additionally, the inventors assessed the ability of RLS-0127* and RLS-0133* to bind C1q in a plate-based assay in which C1q is coated on the plate and increasing amounts of the peptides are added, followed by primary antibody to the peptides and secondary antibody conjugated to HRP. The plate was then incubated with TMB to give a […] signal that is detected at a wavelength of 450 nm in a plate reader.

CC[C@H](C)[C@H](N)C(=O)N[C@@H](C)C(=O)N[C@@H](CC(C)C)C(=O)N[C@H](C(=O)N[C@@H](CC(C)C)C(=O)N[C@@H](CCC(=O)O)C(=O)N1CCC[C@H]1C(=O)N(C)CC(=O)N[C@@H](CS)C(=O)N[C@@H](CS)C(=O)N[C@@]1(C)CCCC=CCCC[C@@](C)(C(=O)O)NC(=O)[C@H](C)NC(=O)[C@H](CCCNC(=N)N)NC(=O)[C@H](CCC(=O)O)NC1=O)[C@@H](C)CC [PA-0116, IALILEP(Sar)CCS5ERAS5] (H-IALILEP[Sar]CC[S5]ERA[S5]-OH; staple 11-15)
total antioxidant capacity compared with PA-I8Sar [1]: increased activity; also recorded: superior antioxidant activity

CC[C@H](C)[C@H](N)C(=O)N[C@@H](C)C(=O)N[C@@H](CC(C)C)C(=O)N[C@H](C(=O)N[C@@H](CC(C)C)C(=O)N[C@@H](CCC(=O)O)C(=O)N1CCC[C@H]1C(=O)N(C)CC(=O)N[C@@H](CS)C(=O)N[C@@H](CS)C(=O)N[C@@H](CCC(N)=O)C(=O)N[C@@H](CCC(=O)O)C(=O)N[C@@H](CCCNC(=N)N)C(=O)N[C@@H](C)C(=O)N[C@H](C)C(=O)O)[C@@H](C)CC [PA-0133, IALILEP(Sar)CCQERAdA] (HELM PEPTIDE1{I.A.L.I.L.E.P.[Sar].C.C.Q.E.R.A.[dA]}$$$$V2.0)
decrease in ABO hemolysis compared to reference peptide [2]: 25% | reduction of free DNA (marker of NETosis) (human neutrophils): reduction in free DNA similar to that of the PA-I8Sar control; also recorded: ability to inhibit NET formation | inhibition of complement activity in the hemolytic assay of rat plasma (complement activity): inhibition of complement activity

IALR8LEPI(Sar)CS5ERAA (IAL[R8]LEPI[Sar]C[S5]ERAA; bridges not given here; also: R8/S5 4-11 may or may not be stapled) [PA-0147]
total antioxidant capacity compared with PA-C9Sar [1]: maintained similar activity

IALILS5P(Sar)CS5QERAA (IALIL[S5]P[Sar]C[S5]QERAA; staple 6-10) [PA-0119]
binding to C1q compared with PA-I8Sar (C1q): markedly increased binding to C1q

IALILR8P(Sar)CCQES5AA (IALIL[R8]P[Sar]CCQE[S5]AA; bridges not given here; also: R8/S5 6-13 may or may not be stapled) [PA-0114]
total antioxidant capacity compared with PA-I8Sar [1]: reduction in total antioxidant capacity
